The numbers were not newly measured in patent US4971799A, “Percutaneous-administration-type pharmaceutical preparation of nitroglycerin” (Sekisui Kagaku Kogyo Kabushiki Kaisha, priority 1987, dated 1990), which cites them from elsewhere.

The conditions of the data set: intravenous injection.

As for `O=[N+]([O-])OCC(CO[N+](=O)[O-])O[N+](=O)[O-]` [nitroglycerin], the Duration of effects result is “effects are lost after a very short period of time”. The Side effects result (high blood level for a short period) is recorded as “headache, dizziness, orthostatic hypotension”.
